Laboratory results: patent US20260070911A1, “INHIBITORS OF TAM RECEPTORS” (National Health Research Institutes, priority 2022, published 2026)

Tests used:
Type in all cases: biochemical
MERTK = biological target: T1, MERTK (Homo sapiens, UniProt Q12866); assay: MERTK enzymatic assay (Kinase Glo); conditions: purified kinase, ATP 12 μM, read-out: MER Enzymatic Inhibition (%)
T1 sequence (Q12866 21-999): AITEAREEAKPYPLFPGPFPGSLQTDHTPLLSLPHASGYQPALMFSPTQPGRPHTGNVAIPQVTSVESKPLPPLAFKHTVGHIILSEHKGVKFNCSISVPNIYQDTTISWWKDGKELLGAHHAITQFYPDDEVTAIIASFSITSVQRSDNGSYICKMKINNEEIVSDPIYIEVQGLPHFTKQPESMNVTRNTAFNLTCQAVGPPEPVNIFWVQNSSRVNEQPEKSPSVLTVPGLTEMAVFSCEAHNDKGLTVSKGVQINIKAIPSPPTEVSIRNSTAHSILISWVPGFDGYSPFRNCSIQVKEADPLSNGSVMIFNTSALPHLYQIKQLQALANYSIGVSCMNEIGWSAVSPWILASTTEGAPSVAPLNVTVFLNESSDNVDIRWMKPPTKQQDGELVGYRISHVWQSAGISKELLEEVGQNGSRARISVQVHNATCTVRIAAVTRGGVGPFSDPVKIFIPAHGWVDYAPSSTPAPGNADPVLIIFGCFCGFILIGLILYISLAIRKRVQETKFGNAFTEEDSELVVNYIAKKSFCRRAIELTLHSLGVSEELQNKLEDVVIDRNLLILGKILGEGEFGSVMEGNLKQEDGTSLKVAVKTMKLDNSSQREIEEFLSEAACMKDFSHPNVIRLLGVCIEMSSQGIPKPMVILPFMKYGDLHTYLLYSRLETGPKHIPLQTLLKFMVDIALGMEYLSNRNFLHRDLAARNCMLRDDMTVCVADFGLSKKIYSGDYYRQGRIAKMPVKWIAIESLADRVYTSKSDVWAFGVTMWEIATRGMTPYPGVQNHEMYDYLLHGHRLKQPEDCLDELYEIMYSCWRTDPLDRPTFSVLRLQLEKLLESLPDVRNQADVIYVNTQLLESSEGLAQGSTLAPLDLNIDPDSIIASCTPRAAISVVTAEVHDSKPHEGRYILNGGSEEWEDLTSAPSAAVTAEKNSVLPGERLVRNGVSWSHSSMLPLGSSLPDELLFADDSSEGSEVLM
Method: (§1) A purified kinase (AXL or MERTK) was incubated with a compound or DMSO (control) for 15 minutes in an assay buffer (25 mM Tri s pH 7.4, 10 mM MgCl2, 4 mM MnCl2, 2 mM DTT, 0.0100 BSA, 0.02% TritonX-100, 0.0100 Brij35 and 0.5 mM Na3VO4 for MERTK; and 40 mM Tri s pH 7.4, 20 mM MgCl2, 2 mM DTT, 0.01% BSA and 0.5 mM Na3VO4 for AXL). […] The mixture was incubated for 3 hours at 30° C. The luminescence was calculated to determine the kinase activity using a Kinase Glo assay kit for MERTK and an ADP-Glo Kinase Assay kit for AXL following the manufacture's instructions (Promega Corp., Madison, Wisconsin).
(§2) A study was conducted to compare exemplary compounds of formula (I) in inhibiting TAM activities, including MERTK, AXL, and TYRO3. An enzymatic assay was used in the study. A purified Kinase (i.e., MERTK, AXL, or TYRO3) was incubated with a compound or DMSO (control) for around 15 minutes in an assay buffer (25 mM Tris pH 7.4, 10 mM MgCl2, 4 mM MnCl2, 2 mM DTT, 0.01% BSA, 0.02% TritonX-100, 0.01% Brij35 and 0.5 mM Na3VO4 for MERTK; 40 mM Tris pH 7.4, 20 mM MgCl2, 2 mM DTT, 0.01% BSA and 0.5 mM Na3VO4 for AXL; and 25 mM Tris pH 7.4, 10 mM MgCl2, 4 mM MnCl2, 2 mM DTT, 0.01% BSA and 0.5 mM Na3VO4 for TYRO3). […] The mixture was incubated for 3 hours at 30° C. The luminescence was calculated to determine the kinase activity using a Kinase Glo assay kit for MERTK and an ADP-Glo Kinase assay kit for AXL and TYRO3 following the manufacture's instructions (Promega). Inhibition rates and half maximal inhibitory concentration (IC50) values were calculated. High percentage inhibition rates and low IC50 values are indicatives of high potency of the test compound.

AXL = biological target: T2, AXL (Homo sapiens, UniProt P30530); assay: AXL enzymatic assay (ADP-Glo); conditions: purified kinase, ATP 50 μM, read-out: AXL Enzymatic Inhibition (%)
T2 sequence (P30530 26-894): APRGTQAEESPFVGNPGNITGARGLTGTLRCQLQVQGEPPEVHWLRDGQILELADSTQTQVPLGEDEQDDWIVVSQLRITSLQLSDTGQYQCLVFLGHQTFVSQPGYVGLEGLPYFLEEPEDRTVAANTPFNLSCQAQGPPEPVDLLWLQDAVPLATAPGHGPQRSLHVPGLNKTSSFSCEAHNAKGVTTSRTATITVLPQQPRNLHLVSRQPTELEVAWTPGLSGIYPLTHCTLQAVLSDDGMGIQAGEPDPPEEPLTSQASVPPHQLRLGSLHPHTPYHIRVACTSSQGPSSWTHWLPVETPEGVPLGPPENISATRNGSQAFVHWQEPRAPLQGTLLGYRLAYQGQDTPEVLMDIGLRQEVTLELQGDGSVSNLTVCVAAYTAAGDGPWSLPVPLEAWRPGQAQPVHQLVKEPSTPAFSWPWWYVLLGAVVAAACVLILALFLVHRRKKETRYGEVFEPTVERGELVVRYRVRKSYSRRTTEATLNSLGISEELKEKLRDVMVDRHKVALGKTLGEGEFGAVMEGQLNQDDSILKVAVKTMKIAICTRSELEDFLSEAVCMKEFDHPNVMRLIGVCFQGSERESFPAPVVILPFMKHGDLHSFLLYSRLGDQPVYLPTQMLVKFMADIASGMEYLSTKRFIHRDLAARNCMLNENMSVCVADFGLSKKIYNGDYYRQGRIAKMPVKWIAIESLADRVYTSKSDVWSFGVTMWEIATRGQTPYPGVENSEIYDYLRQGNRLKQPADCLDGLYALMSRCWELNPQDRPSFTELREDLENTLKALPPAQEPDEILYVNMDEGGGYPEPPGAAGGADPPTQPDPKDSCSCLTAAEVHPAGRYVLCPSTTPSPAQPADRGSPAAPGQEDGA
Method: as §1, §2

MER/AXL = assay: Dual MER/AXL inhibition (enzymatic); conditions: class for both MER and AXL
Method: as §1

Row | SMILES | IC50 (MERTK) [nM] | IC50 (AXL) [nM] | IC50 (MER/AXL) [nM]
1 | Cn1cc(-c2oc3ncnc(Oc4ccc(NC(=O)c5cccn(C)c5=O)cc4)c3c2-c2cccc(N)c2)cn1 [Compound 66] | 100 to 50000 | 100 to 50000 | 100 to 50000
2 | CC(=O)Nc1cccc(-c2c(-c3cc[nH]n3)oc3ncnc(Oc4ccc(NC(=O)c5cccn(-c6ccc(F)cc6)c5=O)cc4)c23)c1 [Compound 67] | 100 to 50000 | < 20 | 100 to 50000
3 | Cn1cc(-c2oc3ncnc(Oc4ccc(NC(=O)c5cccn(-c6ccc(F)cc6)c5=O)cc4)c3c2-c2cccc(N3CCCCC3=O)c2)cn1 [Compound 175] | 100 to 50000 | 100 to 50000 | 100 to 50000
4 | Nc1cccc(-c2c(-c3ccccc3)oc3ncnc(Oc4ccc(NC(=O)c5cccn(-c6ccc(F)cc6)c5=O)cc4)c23)c1 [Compound 9] | 100 to 50000 | 100 to 50000 | 100 to 50000
5 | CN(C)Cc1cccc(-c2c(-c3cnn(C)c3)oc3ncnc(Oc4ccc(NC(=O)c5cccn(-c6ccc(F)c(F)c6)c5=O)cc4)c23)c1 [Compound 95] | < 20 | < 20 | < 20
6 | CCOc1ccn(-c2ccc(F)cc2)c(=O)c1C(=O)Nc1ccc(Oc2ncnc3oc(-c4cnn(C)c4)c(-c4cccc(N)c4)c23)cc1 [Compound 19] | 20 to 100 | < 20 | 20 to 100
7 | C=CC(=O)Nc1cccc(-c2c(-c3cnn(C)c3)oc3ncnc(Oc4ccc(NC(=O)c5cccn(-c6ccc(F)cc6)c5=O)cc4)c23)c1 [Compound 12] | 100 to 50000 | 100 to 50000 | 100 to 50000
8 | CN(C)Cc1cccc(-c2c(-c3cnn(C)c3)oc3ncnc(Oc4ccc(NC(=O)c5cccn(-c6ccc(F)cc6F)c5=O)cc4)c23)c1 [Compound 93] | 20 to 100 | < 20 | 20 to 100
9 | CC(=O)Nc1cccc(-c2c(-c3cnn(C)c3)oc3ncnc(Oc4ccc(NC(=O)c5c(C)ccn(-c6ccc(F)cc6)c5=O)cc4)c23)c1 [Compound 72] | 100 to 50000 | 100 to 50000 | 100 to 50000
10 | Nc1cccc(-c2n[nH]c3ncnc(Oc4ccc(NC(=O)c5cccn(-c6ccc(F)cc6)c5=O)cc4)c23)c1 [Compound 36] | 100 to 50000 | 20 to 100 | 100 to 50000
11 | CCOc1ccn(-c2ccc(F)cc2)c(=O)c1C(=O)Nc1ccc(Oc2ncnc3[nH]ccc23)cc1 [Compound 6] | 100 to 50000 | 100 to 50000 | 100 to 50000
12 | Cn1cc(-c2oc3ncnc(Oc4ccc(NC(=O)c5ccc(-c6cccc(F)c6)o5)cc4)c3c2-c2cccc(N)c2)cn1 [Compound 119] | 100 to 50000 | 20 to 100 | 100 to 50000
13 | CC(=O)Nc1cccc(-c2c(-c3cnn(C)c3)oc3ncnc(Oc4ccc(NC(=O)c5cccn(-c6cccc(F)c6)c5=O)cc4)c23)c1 [Compound 57] | 100 to 50000 | < 20 | 100 to 50000
14 | CC(=O)Nc1cccc(-c2c(-c3cnn(C)c3)oc3ncnc(Oc4ccc(NC(=O)c5ccc(C)n(-c6ccc(F)cc6)c5=O)cc4)c23)c1 [Compound 70] | < 20 | < 20 | < 20
15 | Cc1ccn(-c2ccc(F)cc2)c(=O)c1C(=O)Nc1ccc(Oc2ncnc3oc(-c4cnn(C)c4)c(-c4cccc(N)c4)c23)cc1 [Compound 71] | < 20 | < 20 | < 20
16 | O=C(Nc1ccc(Oc2ncnc3[nH]cc(-c4ccccn4)c23)cc1)c1cccn(-c2ccc(F)cc2)c1=O [Compound 17] | 100 to 50000 | < 20 | 100 to 50000
17 | Cn1cc(-c2oc3ncnc(Oc4ccc(NC(=O)c5cccn(-c6cccc(F)c6)c5=O)cc4)c3c2-c2cccc(N)c2)cn1 [Compound 55] | 20 to 100 | < 20 | 20 to 100
18 | Cn1cc(-c2oc3ncnc(Oc4ccc(NC(=O)c5cc6c(n(-c7ccc(F)cc7)c5=O)CCCC6=O)cc4)c3c2-c2cccc(N)c2)cn1 [Compound 68] | 20 to 100 | < 20 | 20 to 100
19 | Cn1cc(-c2cc3c(Oc4ccc(NC(=O)c5cccn(-c6ccc(F)cc6)c5=O)cc4)ncnc3[nH]2)cn1 [Compound 78] | 20 to 100 | < 20 | 20 to 100
20 | Cn1cc(C(=O)Nc2ccc(Oc3ncnc4[nH]cc(-c5cccc(N)c5)c34)cc2)c(=O)n1-c1ccc(F)cc1 [Compound 124] | 100 to 50000 | 100 to 50000 | 100 to 50000
21 | Cn1cc(-c2oc3ncnc(Oc4ccc(NC(=O)c5cn(C)n(-c6ccc(F)cc6)c5=O)cc4)c3c2-c2cccc(CN3CCNCC3)c2)cn1 [Compound 130] | 100 to 50000 | 100 to 50000 | 100 to 50000
22 | Cn1cc(-c2oc3ncnc(Oc4ccc(NC(=O)c5cccn(-c6ccc(F)cc6)c5=O)nc4)c3c2-c2cccc(N)c2)cn1 [Compound 52] | 20 to 100 | < 20 | 20 to 100
23 | Cn1cc(-c2oc3ncnc(Oc4ccc(NC(=O)c5cccn(-c6ccc(F)cc6F)c5=O)cc4)c3c2-c2cccc(N)c2)cn1 [Compound 92] | 20 to 100 | < 20 | 20 to 100
24 | CC(=O)Nc1cccc(-c2c(-c3cnn(C)c3)oc3ncnc(Oc4ccc(NC(=O)c5cccn(-c6ccc(F)cc6)c5=O)nc4)c23)c1 [Compound 53] | 20 to 100 | 20 to 100 | 20 to 100
25 | Cn1cc(-c2cc3c(Oc4ccc(NC(=O)c5cccn(C6CCCCC6)c5=O)cc4)ncnc3o2)cn1 [Compound 86] | 100 to 50000 | 100 to 50000 | 100 to 50000
26 | CC(=O)Nc1cccc(-c2c(-c3cnn(C)c3)oc3ncnc(Oc4ccc(NC(=O)c5c(C)n(C)n(-c6ccc(F)cc6)c5=O)cc4)c23)c1 [Compound 122] | 100 to 50000 | < 20 | 100 to 50000
